AUC, Cmax and Tmax data for one compound are collected here from patent US20060287316A1, “METHOD FOR IMPROVING PHARMACOKINETICS OF PROTEASE INHIBITORS AND PROTEASE INHIBITOR PRECURSORS” (priority 2005, published 2006).

The nature of the data set: Plasma concentration after single oral dose in rats (in vivo cleavage of the phosphate group). The arrangement: species or system male Sprague-Dawley rats. Conditions: 50 mg/Kg po, vehicle Mix, 3 rats. The method, then:
To assess the extent of in vivo cleavage of the phosphate group from the putative compounds, PL-100, PL-462 (based on PL-100), PL-337 and PL-515 (based on PL-337) compounds were administered po (per os, (i.e., by mouth)) (50 mg/kg) to male Sprague-Dawley rats and their plasma concentration measured at different time intervals post-administration.
All test articles (PL-100, PL-462, PL-337 and PL-515) were prepared in different vehicle at the final concentration of 25 mg/mL. The vehicle composition is as follows: (1) 20% ethanol; 50% propylene glycol; 0.05% w/v Tween 20 and water (Mix); (2) PBS buffer (PBS).
Test articles were administered to male Sprague-Dawley rats at a single oral dose of 50 mg/kg. Each article was tested in three rats. Blood samples (0.2-0.3 mL) were collected at the post-dose time of 10, 20, 40, 60, 120, 180 and 360 minutes. The harvested blood was centrifuged to isolate plasma. The resulting plasma was separated and stored at −70° C.
Plasma samples together with standards and quality control samples were treated to precipitate proteins, then analyzed by HPLC-MS, for the presence of PL-462, PL-100, PL-515 and PL-337.

Molecules are shown by their SMILES.

Usually Cmax stands for the peak of the concentration-time curve. The term Tmax denotes the time from dosing to the highest level.

`COC(=O)N[C@H](C(=O)NCCCC[C@@H](CO)N(CC(C)C)S(=O)(=O)c1ccc(N)cc1)C(c1ccccc1)c1ccccc1` [PL-100, (1S,5S)-(1-{5-[(4-amino-benzenesulfonyl)-isobutyl-amino]-6-hydroxy-hexylcarbamoyl}-2,2-diphenyl-ethyl)-carbamic acid methyl ester]: the AUC is listed as 0.675 ± 0.171 μg/hr * ml, the Cmax is 498 ± 203 nM and the Tmax is on record as 40 ± 16 min.
